Measurements as given in patent publication US8501787B2, “Compounds for the inhibition of angiogenesis and use thereof” (Shire Orphan Therapies GmbH, priority 2004, dated 2013).

Biological target: T1, integrin alpha5beta1 (Homo sapiens, UniProt P05556+P08648)
T1 construct: The integrin alpha5beta1 extracellular domain Fc-fusion was expressed and purified; made in house
Test: Alpha5beta1-Fibronectin binding assay (competitive ELISA)
Conditions: inhibition of integrin binding to fibronectin; read-out: IC50 alpha5beta1 in nM
Experimental: The optimal concentrations of integrin and ligand were selected from ELISA binding studies with variable concentrations of both to obtain optimal signal noise ratio for further studies. IC50 studies were performed with fixed concentration of ligand and integrin and a serial dilution of inhibitor. The plates were measured with SpectraMax Plus reader (Molecular Devices). The resulting inhibition curves were analyzed using SoftMaxPro 4.0 software, the turning point describes the IC50 value.
Fibronectin and Vitronectin were purchased from Sigma, fibrinogen from Calbiochem. (EMD Biosciences, Darmstadt, Germany) The integrin alpha5beta1 extracellular domain Fc-fusion was expressed and purified as described in (Coe, 2001, JBC, 276, 35854). Integrins alphavbeta3 and alphavbeta5 were purchased from Chemicon (Chemicon Europe, Germany) and alphaIIbbeta3 form Kordia (Kordia Life Science, Leiden, Netherlands)
Fibronectin was diluted with coating buffer (15 mM Na2CO3, 35 mM NaHCO3, pH9.6) and coated with 100 μL/well to Nunc-Immuno maxisorp plates (Nalge Nunc Europe Ltd) over night at 4° C. After discarding the coating solution plates were washed 3 times with buffer 1 ([…], pH7.6, 150 mM NaCl, 1 mM […], 1 mg/mL BSA) and blocked with 100 μL blocking buffer (3% BSA in PBS 0.1% Tween20) for 1 hour at room temperature. After washing the blocked plates (3 times) with buffer 1, integrin (50 μL) and either inhibitor (serial dilution in buffer 1) or buffer 1 (50 μL) were added to the wells and incubated for one hour at RT. Plates were then washed (3 times) with buffer 1 and incubated with 100 μL of anti-human-Fc-HRP antibody conjugate (Sigma-Aldrich, Taufkirchen, Germany) in buffer 1 for 1 hour at RT. After additional washing steps (3 times) with buffer 1 50 μL of HRP substrate solution TMB (Seramun, Germany) were added to the wells. Colour development was stopped after 3-5 minutes with 50 μL 1M H2SO4. The developed colour was measured at 450 nm and analyzed as described above.

| SMILES | IC50 |
| --- | --- |
| CCC(=O)N1C[C@H](OCC(=O)NC[C@H](NS(=O)(=O)c2c(C)cc(C)cc2C)C(=O)O)C[C@H]1CNc1ccccn1 [Compound 38, 3-{2-[1-Propionyl-5-(pyridin-2-ylaminomethyl)-pyrrolidin-3-yloxy]-acetylamino}-2-(2,4,6-trimethyl-benzenesulfonylamino)-propionic acid] | 11.9 nM |
| Cc1cc(C)c(S(=O)(=O)N[C@@H](CNC(=O)CO[C@@H]2C[C@@H](CNc3ccccn3)N(S(=O)(=O)Cc3ccccc3)C2)C(=O)O)c(C)c1 [Compound 15, 3-{2-[1-Phenylmethanesulfonyl-5-(pyridin-2-ylaminomethyl)-pyrrolidin-3-yloxy]-acetylamino}-2-(2,4,6-trimethyl-benzenesulfonylamino)-propionic acid] | 11.3 nM |

Same assay, conditions: method of section 1.1; read-out: Group (binding activities to integrin alpha5beta1)

| SMILES | IC50 |
| --- | --- |
| CCC(C)(C)C(=O)N[C@@H](CNC(=O)CO[C@@H]1C[C@@H](CNc2ccccn2)N(C(=O)OCc2ccccc2)C1)C(=O)O [Compound 118, 4-{[2-Carboxy-2-(2,2-dimethyl-butyrylamino)-ethylcarbamoyl]-methoxy}-2-(pyridin-2-ylaminomethyl)-pyrrolidine-1-carboxylic acid benzyl ester] | < 10 nM |
| CCC(=O)N1C[C@H](OCC(=O)NC[C@H](NS(=O)(=O)c2c(C)cc(C)cc2C)C(=O)O)C[C@H]1CNc1ccccn1 [Compound 38, 3-{2-[1-Propionyl-5-(pyridin-2-ylaminomethyl)-pyrrolidin-3-yloxy]-acetylamino}-2-(2,4,6-trimethyl-benzenesulfonylamino)-propionic acid] | 10 to 500 nM |
| Cc1cc(C)c(S(=O)(=O)N[C@@H](CNC(=O)CO[C@@H]2C[C@@H](CNc3ccccn3)N(C(=O)CC3CCCC3)C2)C(=O)O)c(C)c1 [Compound 35, 3-{2-[1-(2-Cyclopentyl-acetyl)-5-(pyridin-2-ylaminomethyl)-pyrrolidin-3-yloxy]-acetylamino}-2-(2,4,6-trimethyl-benzenesulfonylamino)-propionic acid] | 10 to 500 nM |
| CC(C)c1cc(C(C)C)c(C(=O)N[C@@H](CNC(=O)CO[C@@H]2C[C@@H](CNc3ccccn3)N(C(=O)OCc3ccccc3)C2)C(=O)O)c(C(C)C)c1 [Compound 126, 4-{[2-Carboxy-2-(2,4,6-triisopropyl-benzoylamino)-ethylcarbamoyl]-methoxy}-2-(pyridin-2-ylaminomethyl)-pyrrolidine-1-carboxylic acid benzyl ester] | > 500 nM |
| O=C(CO[C@@H]1C[C@@H](CNc2ccccn2)N(C(=O)OCc2ccccc2)C1)NC[C@H](NC(=O)c1ccccc1Cl)C(=O)O [Compound 97, 4-{[2-Carboxy-2-(2-chloro-benzoylamino)-ethylcarbamoyl]-methoxy}-2-(pyridin-2-ylaminomethyl)-pyrrolidine-1-carboxylic acid benzyl ester] | < 10 nM |
| O=C(CO[C@@H]1C[C@@H](CNc2ccccn2)N(C(=O)OCc2ccccc2)C1)NC[C@H](NC(=O)Nc1ccc(-c2ccccc2)cc1)C(=O)O [Compound 80, 4-{[2-(3-Biphenyl-4-yl-ureido)-2-carboxy-ethylcarbamoyl]-methoxy}-2-(pyridin-2-ylaminomethyl)-pyrrolidine-1-carboxylic acid benzyl ester] | 10 to 500 nM |
| COc1cccc(OC)c1C(=O)N[C@@H](CNC(=O)CO[C@@H]1C[C@@H](CNc2ccccn2)N(C(=O)OCc2ccccc2)C1)C(=O)O [Compound 90, 4-{[2-Carboxy-2-(2,6-dimethoxy-benzoylamino)-ethylcarbamoyl]-methoxy}-2-(pyridin-2-ylaminomethyl)-pyrrolidine-1-carboxylic acid benzyl ester] | < 10 nM |
| COc1cccc(CC(=O)N2C[C@H](OCC(=O)NC[C@H](NS(=O)(=O)c3c(C)cc(C)cc3C)C(=O)O)C[C@H]2CNc2ccccn2)c1 [Compound 36, 3-{2-[1-[2-(3-Methoxy-phenyl)-acetyl]-5-(pyridin-2-ylaminomethyl)-pyrrolidin-3-yloxy]-acetylamino}-2-(2,4,6-trimethyl-benzenesulfonylamino)-propionic acid] | 10 to 500 nM |
| Cc1cc(C)c(CNC(CNC(=O)COC2CC(CNc3ccccn3)N(C(=O)OCc3ccccc3)C2)C(=O)O)c(C)c1 (stereo not drawn) [Compound 82, 4-{[2-Carboxy-2-(2,4,6-trimethyl-benzylamino)-ethylcarbamoyl]-methoxy}-2-(pyridin-2-ylaminomethyl)-pyrrolidine-1-carboxylic acid benzyl ester] | > 500 nM |
| Cc1cc(C)c(S(=O)(=O)N[C@@H](CNC(=O)CO[C@@H]2C[C@@H](CNc3ccccn3)N(C(=O)CC(C)(C)C)C2)C(=O)O)c(C)c1 [Compound 31, 3-{2-[1-(3,3-Dimethyl-butyryl)-5-(pyridin-2-ylaminomethyl)-pyrrolidin-3-yloxy]-acetylamino}-2-(2,4,6-trimethyl-benzenesulfonylamino)-propionic acid] | < 10 nM |
| Cc1cc(C)c(S(=O)(=O)N[C@@H](CNC(=O)CO[C@@H]2C[C@@H](CNc3cc[nH]n3)N(C(=O)OCc3ccccc3)C2)C(=O)O)c(C)c1 [Compound 135, 4-{[2-Carboxy-2-(2,4,6-trimethyl-benzenesulfonylamino)-ethylcarbamoyl]-methoxy}-2-[(1H-pyrazol-3-ylamino)-methyl]-pyrrolidine-1-carboxylic acid benzyl ester] | > 500 nM |
| O=C(O)C[C@H](Cc1ccccc1)NC(=O)CO[C@@H]1C[C@@H](CNc2ccccn2)N(C(=O)OCc2ccccc2)C1 [Compound 150, 4-[(1-Carboxymethyl-2-phenyl-ethylcarbamoyl)-methoxy]-2-(pyridin-2-ylaminomethyl)-pyrrolidine-1-carboxylic acid benzyl ester] | > 500 nM |
| O=C(CO[C@@H]1C[C@@H](CNc2ccccn2)N(C(=O)OCc2ccccc2)C1)NC[C@H](NC(=O)c1cc(C(F)(F)F)cc(C(F)(F)F)c1)C(=O)O [Compound 86, 4-{[2-(3,5-Bis-trifluoromethyl-benzoylamino)-2-carboxy-ethylcarbamoyl]-methoxy}-2-(pyridin-2-ylaminomethyl)-pyrrolidine-1-carboxylic acid benzyl ester] | > 500 nM |
| Cc1cc(C)c(S(=O)(=O)N[C@@H](CNC(=O)CO[C@@H]2C[C@@H](CNc3ccccn3)N(CCCc3ccccc3)C2)C(=O)O)c(C)c1 [Compound 18, 3-{2-[1-(3-Phenyl-propyl)-5-(pyridin-2-ylaminomethyl)-pyrrolidin-3-yloxy]-acetylamino}-2-(2,4,6-trimethyl-benzenesulfonylamino)-propionic acid] | 10 to 500 nM |
| O=C(CO[C@@H]1C[C@@H](CNc2ccccn2)N(C(=O)OCc2ccccc2)C1)NC[C@H](NC(=O)C1CCCCC1)C(=O)O [Compound 91, 4-{[2-Carboxy-2-(cyclohexanecarbonyl-amino)-ethylcarbamoyl]-methoxy}-2-(pyridin-2-ylaminomethyl)-pyrrolidine-1-carboxylic acid benzyl ester] | < 10 nM |
| O=C(CO[C@@H]1C[C@@H](CNc2ccccn2)N(C(=O)OCc2ccccc2)C1)NC[C@H](NC(=O)CCCc1ccccc1)C(=O)O [Compound 127, 4-{[2-Carboxy-2-(4-phenyl-butyrylamino)-ethylcarbamoyl]-methoxy}-2-(pyridin-2-ylaminomethyl)-pyrrolidine-1-carboxylic acid benzyl ester] | 10 to 500 nM |
| Cc1cc(C)c(S(=O)(=O)N[C@@H](CNC(=O)CO[C@@H]2C[C@@H](CNc3ccccn3)N(S(=O)(=O)Cc3ccccc3)C2)C(=O)O)c(C)c1 [Compound 15, 3-{2-[1-Phenylmethanesulfonyl-5-(pyridin-2-ylaminomethyl)-pyrrolidin-3-yloxy]-acetylamino}-2-(2,4,6-trimethyl-benzenesulfonylamino)-propionic acid] | 10 to 500 nM |
| O=C(CO[C@@H]1C[C@@H](CNc2ccccn2)N(C(=O)OCc2ccccc2)C1)NC[C@H](NC(=O)C1(c2ccccc2)CC1)C(=O)O [Compound 106, 4-({2-Carboxy-2-[(1-phenyl-cyclopropanecarbonyl)-amino]-ethylcarbamoyl}-methoxy)-2-(pyridin-2-ylaminomethyl)-pyrrolidine-1-carboxylic acid benzyl ester] | 10 to 500 nM |
| O=C(CO[C@@H]1C[C@@H](CNc2ccccn2)N(C(=O)OCc2ccccc2)C1)NC[C@H](NC(=O)CCc1ccccc1)C(=O)O [Compound 74, 4-{[2-Carboxy-2-(3-phenyl-propionylamino)-ethylcarbamoyl]-methoxy}-2-(pyridin-2-ylaminomethyl)-pyrrolidine-1-carboxylic acid benzyl ester] | 10 to 500 nM |
| Cc1cccc(C)c1C(=O)N[C@@H](CNC(=O)CO[C@@H]1C[C@@H](CNc2ccccn2)N(C(=O)OCc2ccccc2)C1)C(=O)O [Compound 92, 4-{[2-Carboxy-2-(2,6-dimethyl-benzoylamino)-ethylcarbamoyl]-methoxy}-2-(pyridin-2-ylaminomethyl)-pyrrolidine-1-carboxylic acid benzyl ester] | < 10 nM |
| O=C(CO[C@@H]1C[C@@H](CNc2ccccn2)N(C(=O)OCc2ccccc2)C1)NC[C@H](NC(=O)c1ccccc1-c1ccccc1)C(=O)O [Compound 104, 4-({2-[(Biphenyl-2-carbonyl)-amino]-2-carboxy-ethylcarbamoyl}-methoxy)-2-(pyridin-2-ylaminomethyl)-pyrrolidine-1-carboxylic acid benzyl ester] | 10 to 500 nM |
| O=C(CO[C@@H]1C[C@@H](CNc2ccccn2)N(C(=O)OCc2ccccc2)C1)NC[C@H](NC(=O)c1ccccc1[N+](=O)[O-])C(=O)O [Compound 96, 4-{[2-Carboxy-2-(2-nitro-benzoylamino)-ethylcarbamoyl]-methoxy}-2-(pyridin-2-ylaminomethyl)-pyrrolidine-1-carboxylic acid benzyl ester] | < 10 nM |
